Reference: patent EP4603105A1, “PHARMACEUTICAL COMPOSITION CONTAINING CYCLIC COMPOUND HAVING SELECTIVE KRAS INHIBITORY EFFECT AGAINST HRAS AND NRAS” (CHUGAI SEIYAKU KABUSHIKI KAISHA, priority 2022, dated 2024)
*1 amine or outer side, *2 acyl side, *3 side chain or, on linkers, in order; H or OH if unused. Where a SMILES comes first, the peptide text is derived from it. Bridges are numbered along the chain shown (N, C = ends). [ ]: non-standard residue; d: D form. The star is where a group is joined. hPhe(3,5-F2-4-CF3) = N[C@@H](CCc1cc(F)c(C(F)(F)F)c(F)c1)C(=O)O; hPhe(3-Cl-4-CF3) = N[C@@H](CCc1ccc(C(F)(F)F)c(Cl)c1)C(=O)O; NPrPhe(4-CF3) = CCCN[C@@H](Cc1ccc(C(F)(F)F)cc1)C(=O)O; NMePhe(4-Me) = CN[C@@H](Cc1ccc(C)cc1)C(=O)O; X16 = O=C([C@@H](N[*:1])C1CC(F)(F)C1)[*:2]; NMeGly(cPent) = CN[C@H](C(=O)O)C1CCCC1; Pro(4,4-F2) = O=C(O)[C@@H]1CC(F)(F)CN1; NEtLeu = CCN[C@@H](CC(C)C)C(=O)O; NMeD = CN[C@@H](CC(=O)O)C(=O)O; NMeL = CN[C@@H](CC(C)C)C(=O)O; Morpholide = C1CN(*)CCO1; NMeA = CN[C@@H](C)C(=O)O; Ac5c = NC1(C(=O)O)CCCC1; Aze = O=C(O)[C@@H]1CCN1; Ac4c = NC1(C(=O)O)CCC1; NPrGly = CCCNCC(=O)O; Sar = CNCC(=O)O

What was measured:
[1] = biological target: GDP-bound NRAS wild-type protein (Homo sapiens, UniProt P01111); assay: Binding to NRAS by surface plasmon resonance (SPR), KD and KD ratio to KRAS
Sequence of GDP-bound NRAS wild-type protein (P01111 whole entry): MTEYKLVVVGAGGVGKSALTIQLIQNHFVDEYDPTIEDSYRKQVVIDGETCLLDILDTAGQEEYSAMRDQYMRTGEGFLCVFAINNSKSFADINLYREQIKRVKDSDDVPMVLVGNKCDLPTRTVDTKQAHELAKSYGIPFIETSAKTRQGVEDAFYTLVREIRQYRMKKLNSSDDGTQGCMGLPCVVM
Method in brief: (§1)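 Single-cycle kinetics on GDP-loaded biotin-Avi RAS captured to ~100–300 RU; 75 s ascending injections, 100 µL/min, 30°C. HBS pH 7.4 + 10 mM MgCl2/10 µM GDP/4% DMSO. 1:1 fit, KD.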

[2] = biological target: HRAS wild-type protein (Homo sapiens, UniProt P01112); assay: Binding to HRAS by surface plasmon resonance (SPR), KD and KD ratio to KRAS
Sequence of HRAS wild-type protein (P01112 whole entry): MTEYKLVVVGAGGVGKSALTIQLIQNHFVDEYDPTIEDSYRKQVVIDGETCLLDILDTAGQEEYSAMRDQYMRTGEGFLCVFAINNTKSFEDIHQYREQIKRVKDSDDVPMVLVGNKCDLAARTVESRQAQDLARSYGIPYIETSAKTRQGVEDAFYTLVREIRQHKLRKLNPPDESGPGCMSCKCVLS
Method in brief: as §1

[3] = tested on: human lung cancer strain NCI-H441; format: cell-based
Method in brief: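 Proliferation was scored by […] measured after the reagent was added to cultures kept at 37°C in 5% carbon dioxide.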

[4] = ratio of the KD value with respect to GDP-bound NRAS wild-type protein to the KD value with respect to KRAS
[5] = ratio of the KD value with respect to HRAS wild-type protein to the KD value with respect to KRAS
[6] = ratio of KD for GDP-bound NRAS wild-type protein to KD for KRAS
[7] = ratio of KD for HRAS wild-type protein to KD for KRAS
[8] = ratio of KD value for GDP-bound NRAS wild-type protein to KD value for KRAS (SPR)
[9] = ratio of KD value for HRAS wild-type protein to KD value for KRAS (SPR)

| Structure (SMILES) | NRAS /KRAS [1, 4] | HRAS /KRAS [2, 5] | IC50 [3] [nM] | NRAS /KRAS [1, 6] | HRAS /KRAS [2, 7] | NRAS /KRAS [1, 8] | HRAS /KRAS [2, 9] |
| --- | --- | --- | --- | --- | --- | --- | --- |
| CCCN1C(=O)CN(C)C(=O)CN(C)C(=O)[C@H]([C@@H](C)CC)NC(=O)[C@H](CC(C)C)N(CC)C(=O)C[C@@H](C(=O)N2CCOCC2)N(C)C(=O)[C@H](C2CCCC2)N(C)C(=O)C2(CCC2)NC(=O)[C@@H]2CCCN2C(=O)[C@H](CCc2ccc(C(F)(F)F)c(Cl)c2)NC(=O)CN(C)C(=O)[C@@H]1Cc1ccc(C(F)(F)F)cc1 [PP1946] ([NEtLeu]I[Sar][Sar][NPrPhe(4-CF3)][Sar][hPhe(3-Cl-4-CF3)]P[Ac4c][NMeGly(cPent)][NMeD]-Morpholide; lactam N-11) | B (a compound having 3 or more and less than 10 is denoted as B) | C (A compound having a KD ratio of 0.1 or more and less than 3 is denoted as C) | 15.2 |  |  |  |  |
| CCC[C@H]1C(=O)N[C@@H]([C@@H](C)CC)C(=O)N(C)CC(=O)N(C)[C@H]2C/C=C\CCN(C2=O)[C@@H](Cc2ccc(C(F)(F)F)cc2)C(=O)N(C)CC(=O)N[C@@H](CCc2ccc(C(F)(F)F)c(OC)c2)C(=O)N2CC[C@H]2C(=O)NC2(CC(C)(C)C2)C(=O)N(C)[C@@H](C(CC)CC)C(=O)N(C)[C@H](C(=O)N(C)C)CC(=O)N1C [PP2936] |  |  | 187 | AA (a compound having 20 or more is denoted as AA) | A (a compound having 10 or more and less than 20 is denoted as A) |  |  |
| CC[C@H](C)[C@@H]1NC(=O)[C@H](CC(C)C)N(C)C(=O)C[C@@H](C(=O)N2CCOCC2)N(C)C(=O)[C@H](C2CCCC2)N(C)C(=O)C2(CCCC2)NC(=O)[C@@H]2CCCN2C(=O)[C@H](CCc2cc(F)c(C(F)(F)F)c(F)c2)NC(=O)CN(C)C(=O)[C@H](Cc2ccc(C(F)(F)F)cc2)N2CCCC[C@@H](C2=O)N(C)C(=O)[C@H](C)N(C)C1=O [PP0544] | B (a compound having 3 or more and less than 10 is denoted as B) | B (a compound having 3 or more and less than 10 is denoted as B) | 647 |  |  |  |  |
| CCO[C@@H]1C[C@H]2C(=O)N(C)C3(CC(C)(C)C3)C(=O)N(C)[C@@H](C3CCCC3)C(=O)N(C)[C@H](C(=O)N(C)C)CC(=O)N(C)[C@H]3CCCC/C=C/c4ccc(cc4)C[C@@H](C(=O)N(C)CC(=O)N[C@@H](CCc4ccc(Cl)c(Cl)c4)C(=O)N2C1)N1CC/C=C\C[C@@H](C1=O)N(C)C(=O)CN(C)C(=O)[C@H]([C@@H](C)CC)NC3=O [PP3062] |  |  | 6.3 | A (a compound having 10 or more and less than 20 is denoted as A) | A (a compound having 10 or more and less than 20 is denoted as A) |  |  |
| CCO[C@@H]1C[C@H]2C(=O)NC3(CC(C)(C)C3)C(=O)N(C)[C@@H](CC3CCC3)C(=O)N(C)[C@H](C(=O)N(C)C)CC(=O)N(C)[C@@H](COC)C(=O)N[C@@H]([C@@H](C)CC)C(=O)N(C3CC3)CC(=O)N(C)[C@H]3C/C=C\CCN(C3=O)[C@@H](Cc3ccc(C(F)(F)F)cc3)C(=O)N(C)CC(=O)N[C@@H](CCc3cc(F)c(C(F)(F)F)c(F)c3)C(=O)N2C1 [PP2769] |  |  | 133 | AA (a compound having 20 or more is denoted as AA) | A (a compound having 10 or more and less than 20 is denoted as A) |  |  |
| CCC[C@H]1C(=O)N[C@@H]([C@@H](C)CC)C(=O)N(C)CC(=O)N(C)[C@H]2C/C=C\CCN(C2=O)[C@@H](Cc2ccc(C(F)(F)F)cc2)C(=O)N(C)CC(=O)N[C@@H](CCc2cc(F)c(C(F)F)c(F)c2)C(=O)N2C[C@H](OCC)C[C@H]2C(=O)NC2(CC(C)(C)C2)C(=O)N(C)[C@@H](C(CC)CC)C(=O)N(C)[C@H](C(=O)N(C)C)CC(=O)N1C [PP2781] |  |  | 64.1 | AA (a compound having 20 or more is denoted as AA) | A (a compound having 10 or more and less than 20 is denoted as A) |  |  |
| CC[C@H](C)[C@@H]1NC(=O)[C@H](CC(C)C)N(C)C(=O)C[C@@H](C(=O)N2CCOCC2)N(C)C(=O)[C@H](C2CCCC2)N(C)C(=O)C2(CCCCC2)NC(=O)[C@@H]2CCCN2C(=O)[C@H](CCc2cc(F)c(C(F)(F)F)c(F)c2)NC(=O)CN(C)C(=O)[C@H](Cc2ccc(C(F)(F)F)cc2)N2CCCCC[C@@H](C2=O)N(C)C(=O)CN(C)C1=O [PP0498] | B (a compound having 3 or more and less than 10 is denoted as B) | B (a compound having 3 or more and less than 10 is denoted as B) | 147 |  |  |  |  |
| CC[C@H](C)[C@@H]1NC(=O)[C@H](COC)N(C)C(=O)C[C@@H](C(=O)N2CCOCC2)N(C)C(=O)[C@H](C2CCCC2)N(C)C(=O)C2(CCC2)NC(=O)[C@@H]2C[C@@H](OC)CN2C(=O)[C@H](CCc2cc(F)c(C(F)(F)F)c(F)c2)NC(=O)CN(C)C(=O)[C@H](Cc2ccc(C(F)(F)F)cc2)N2CCCCC[C@@H](C2=O)N(C)C(=O)CN(C)C1=O [PP0837] |  |  | 63.4 | B (a compound having 3 or more and less than 10 is denoted as B) | B (a compound having 3 or more and less than 10 is denoted as B) |  |  |
| CC[C@H](C)[C@@H]1NC(=O)[C@H](CC)N(C)C(=O)C[C@@H](C(=O)N2CCOCC2)N(C)C(=O)[C@H](C2CCCC2)N(C)C(=O)C2(CCCC2)NC(=O)[C@@H]2CCCN2C(=O)[C@H](CCc2cc(F)c(C(F)(F)F)c(F)c2)NC(=O)CN(C)C(=O)[C@H](Cc2ccc(C(F)(F)F)cc2)N2CCCCC[C@@H](C2=O)N(C)C(=O)CN(C)C1=O [PP0488] | A (a compound having 10 or more and less than 20 is denoted as A) | B (a compound having 3 or more and less than 10 is denoted as B) | 54.3 |  |  |  |  |
| CCCN1CC(=O)N(C)[C@@H](Cc2ccc(C)cc2)C(=O)N(C)CC(=O)N[C@@H](CCc2ccc(C(F)(F)F)c(Cl)c2)C(=O)N2CCC[C@H]2C(=O)NC2(CCCC2)C(=O)N(C)[C@@H](C2CCCC2)C(=O)N(C)[C@H](C(=O)N2CCOCC2)CC(=O)N(C)[C@@H](CC(C)C)C(=O)N[C@@H]([C@@H](C)CC)C(=O)N(C)CC1=O [PP0020] ([NMeL]I[Sar][NPrGly][NMePhe(4-Me)][Sar][hPhe(3-Cl-4-CF3)]P[Ac5c][NMeGly(cPent)][NMeD]-Morpholide; lactam N-11) |  |  | 9.9 | C (A compound having a KD ratio of 0.1 or more and less than 3 is denoted as C) | C (A compound having a KD ratio of 0.1 or more and less than 3 is denoted as C) |  |  |
| CCCN1C(=O)[C@@H]2CCN2C(=O)[C@H](C)N(C)C(=O)[C@H]([C@@H](C)CC)NC(=O)[C@H](CC(C)C)N(C)C(=O)C[C@@H](C(=O)N2CCOCC2)N(C)C(=O)[C@H](C2CCCC2)N(C)C(=O)C2(CCCC2)NC(=O)[C@@H]2CC(F)(F)CN2C(=O)[C@H](CCc2ccc(C(F)(F)F)c(Cl)c2)NC(=O)CN(C)C(=O)[C@@H]1Cc1ccc(C(F)(F)F)cc1 [PP0196] ([NMeL]I[NMeA][Aze][NPrPhe(4-CF3)][Sar][hPhe(3-Cl-4-CF3)][Pro(4,4-F2)][Ac5c][NMeGly(cPent)][NMeD]-Morpholide; lactam N-11) |  |  | 3.7 | C (A compound having a KD ratio of 0.1 or more and less than 3 is denoted as C) | C (A compound having a KD ratio of 0.1 or more and less than 3 is denoted as C) |  |  |
| CCCN1C(=O)CN(C)C(=O)[C@@H]2CCN2C(=O)[C@H](C2CC(F)(F)C2)NC(=O)[C@H](CC(C)C)N(C)C(=O)C[C@@H](C(=O)N2CCOCC2)N(C)C(=O)[C@H](C2CCCC2)N(C)C(=O)C2(CCCC2)NC(=O)[C@@H]2CCCN2C(=O)[C@H](CCc2cc(F)c(C(F)(F)F)c(F)c2)NC(=O)CN(C)C(=O)[C@@H]1Cc1ccc(C(F)(F)F)cc1 [PP0786] ([NMeL][X16][Aze][Sar][NPrPhe(4-CF3)][Sar][hPhe(3,5-F2-4-CF3)]P[Ac5c][NMeGly(cPent)][NMeD]-Morpholide; lactam N-11) |  |  | 44.8 | B (a compound having 3 or more and less than 10 is denoted as B) | B (a compound having 3 or more and less than 10 is denoted as B) |  |  |
| CCO[C@@H]1C[C@H]2C(=O)NC3(CCC3)C(=O)N(C)[C@@H](C3CCCC3)C(=O)N(C)[C@H](C(=O)N(C)C)CC(=O)N(C)[C@@H](CC)C(=O)N[C@@H]([C@@H](C)CC)C(=O)N(C)CC(=O)N(C)[C@H]3CCCCN(C3=O)[C@@H](Cc3ccc(C(F)(F)F)cc3)C(=O)N(C)CC(=O)N[C@@H](CCc3cc(Cl)c(C(F)(F)F)c(Cl)c3)C(=O)N2C1 [PP0985] |  |  | 12.2 | C (A compound having a KD ratio of 0.1 or more and less than 3 is denoted as C) | C (A compound having a KD ratio of 0.1 or more and less than 3 is denoted as C) |  |  |
| CC[C@H](C)[C@@H]1NC(=O)[C@H](CC2CC2)N(C)C(=O)C[C@@H](C(=O)N(C)C)N(C)C(=O)[C@H](C2CCCC2)N(C)C(=O)C2(CCC2)NC(=O)[C@@H]2CC(F)(F)CN2C(=O)[C@H](CCc2cc(F)c(C(F)(F)F)c(F)c2)NC(=O)CN(C)C(=O)[C@H](Cc2ccc(C(F)(F)F)cc2)N2CC/C=C\C[C@@H](C2=O)N(C)C(=O)CN(C)C1=O [PP1500] |  |  | 6.9 |  |  | A (a compound having 10 or more and less than 20 is denoted as A) | A (a compound having 10 or more and less than 20 is denoted as A) |
| CCC[C@H]1C(=O)N[C@@H]([C@@H](C)CC)C(=O)N(C)CC(=O)N(C)[C@H]2C/C=C\CCN(C2=O)[C@@H](Cc2ccc(C(F)(F)F)cc2)C(=O)N(C)CC(=O)N[C@@H](CCc2cc(F)c(C(F)(F)F)c(F)c2)C(=O)N2C[C@H](OCC)C[C@H]2C(=O)NC2(CC(C)(C)C2)C(=O)N(C)[C@@H](C2CCCC2)C(=O)N(C)[C@H](C(=O)N(C)C)CC(=O)N1C [PP1645] |  |  | 1.8 |  |  | A (a compound having 10 or more and less than 20 is denoted as A) | A (a compound having 10 or more and less than 20 is denoted as A) |
